Publication PMC1435945, “Prediction of indirect interactions in proteins” (BMC Bioinformatics, 2006)
Marks after values point to notes of the source that are not given here. Where a SMILES comes first, the peptide text is derived from it. [ ]: non-standard residue; d: D form. Tyr(3-I) = N[C@@H](Cc1ccc(O)c(I)c1)C(=O)O; Nle = CCCC[C@H](N)C(=O)O

What was measured:
[1] = biological target: F514 multiple chimeric melanocortin receptor; test: Radioligand binding saturation, chimera F514; conditions: COS-1, F514, F-set, parts A/B/C MC5/MC1/MC4, pK ± SD
[2] = biological target: F413 multiple chimeric melanocortin receptor; test: Radioligand binding saturation, chimera F413; conditions: COS-1, F413, F-set, parts A/B/C MC4/MC1/MC3, pK ± SD
[3] = biological target: F451 multiple chimeric melanocortin receptor; test: Radioligand binding saturation, chimera F451; conditions: COS-1, F451, F-set, parts A/B/C MC4/MC5/MC1, pK ± SD
[4] = biological target: F354 multiple chimeric melanocortin receptor; test: Radioligand binding saturation, chimera F354; conditions: COS-1, F354, F-set, parts A/B/C MC3/MC5/MC4, pK ± SD
[5] = biological target: S134 multiple chimeric melanocortin receptor; test: Radioligand binding saturation, chimera S134; conditions: COS-1, S134, S-set, parts A/B/C MC1/MC3/MC4, pK ± SD
[6] = biological target: S531 multiple chimeric melanocortin receptor; test: Radioligand binding saturation, chimera S531; conditions: COS-1, S531, S-set, parts A/B/C MC5/MC3/MC1, pK ± SD
[7] = biological target: MC1 receptor; conditions: saturation; MC1 wt.; ref [31]; cited from earlier work
Source text: (§1) Table 1 Affinities of multiple chimeric melanocortin receptors.

[8] = biological target: MC5 receptor; conditions: saturation; MC5 wt.; ref [31]; cited from earlier work
Source text: as §1

[9] = biological target: MC3 receptor; conditions: saturation; MC3 wt.; ref [31]; cited from earlier work
Source text: as §1

[10] = biological target: MC4 receptor; conditions: saturation; MC4 wt.; ref [31]; cited from earlier work
Source text: as §1

pK (Kd) [1]: 9.19 ± 0.21
pK (Kd) [2]: 8.62 ± 0.16
pK (Kd) [3]: 9.06 ± 0.31
pK (Kd) [4]: 8.80 ± 0.16
pK (Kd) [5]: 9.30 ± 0.26
pK (Kd) [6]: 8.96 ± 0.35
Compound: CCCC[C@H](NC(=O)[C@H](CO)NC(=O)[C@H](Cc1ccc(O)c(I)c1)NC(=O)[C@H](CO)NC(C)=O)C(=O)NCC(=O)N[C@@H](Cc1c[nH]cn1)C(=O)N[C@H](Cc1ccccc1)C(=O)N[C@@H](CCCNC(=N)N)C(=O)N[C@@H](Cc1c[nH]c2ccccc12)C(=O)NCC(=O)N[C@@H](CCCCN)C(=O)N1CCC[C@H]1C(=O)N[C@H](C(N)=O)C(C)C [^125I-NDP-MSH, [^125I-Tyr^2, Nle^4, D-Phe^7]-α-MSH] (Ac-S[Tyr(3-I)]S[Nle]GH[dF]RWGKPV-NH2)
pK (Kd) [7]: 9.96^a
pK (Kd) [8]: 8.54^a
pK (Kd) [9]: 9.40^a
pK (Kd) [10]: 8.64^a
